# Experimental data published in publication PMC10949639, “Engineering Escherichia coli for high-yielding 2,5-Dimethylpyrazine synthesis from L-Threonine by reconstructing metabolic pathways and enhancing cofactors regeneration” (Biotechnology for Biofuels and Bioproducts, 2024).
# Legend:
# [1] = target: T1, EcTDH (L-threonine dehydrogenase) (Escherichia coli, UniProt P07913); assay: NADH formation at […] nm, lysate supernatant; assay type: biochemical; settings: 100 mM Tris-HCl pH 9.0, 100 mM L-threonine, 50 mM NAD+, 30 °C
# T1 construct: gene tdh; recombinant from pACYCDuet-1 (BamH I/Hind III) in E. coli BL21(DE3); crude lysate supernatant; gene about 1100 bp
# T1 sequence (P07913 1-341): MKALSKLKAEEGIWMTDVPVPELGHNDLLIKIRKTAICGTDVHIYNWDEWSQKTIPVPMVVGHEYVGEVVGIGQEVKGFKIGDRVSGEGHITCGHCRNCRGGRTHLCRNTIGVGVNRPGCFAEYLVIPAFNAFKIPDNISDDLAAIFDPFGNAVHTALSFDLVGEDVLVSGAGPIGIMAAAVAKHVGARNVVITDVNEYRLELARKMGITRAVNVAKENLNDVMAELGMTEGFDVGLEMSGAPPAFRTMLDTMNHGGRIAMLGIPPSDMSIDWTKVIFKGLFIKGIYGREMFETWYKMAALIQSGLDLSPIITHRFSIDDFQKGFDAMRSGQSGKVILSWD
# EhNOX (NADH oxidase) = target: T2, EhNOX (NADH oxidase) (Enterococcus hirae, UniProt I6S3N3); assay: NADH consumption, lysate supernatant; assay type: biochemical; settings: 200 μM NADH, 10 μM FAD, 1 mM dithiothreitol, 20 mM citrate-sodium citrate pH 5.6
# T2 construct: gene EHR_12315; recombinant from pACYCDuet-1-Ectdh-Ehnox (Nde I/Xho I) in E. coli BL21(DE3), co-expressed with EcTDH; crude lysate supernatant; gene about 1400 bp
# T2 sequence (I6S3N3 1-450): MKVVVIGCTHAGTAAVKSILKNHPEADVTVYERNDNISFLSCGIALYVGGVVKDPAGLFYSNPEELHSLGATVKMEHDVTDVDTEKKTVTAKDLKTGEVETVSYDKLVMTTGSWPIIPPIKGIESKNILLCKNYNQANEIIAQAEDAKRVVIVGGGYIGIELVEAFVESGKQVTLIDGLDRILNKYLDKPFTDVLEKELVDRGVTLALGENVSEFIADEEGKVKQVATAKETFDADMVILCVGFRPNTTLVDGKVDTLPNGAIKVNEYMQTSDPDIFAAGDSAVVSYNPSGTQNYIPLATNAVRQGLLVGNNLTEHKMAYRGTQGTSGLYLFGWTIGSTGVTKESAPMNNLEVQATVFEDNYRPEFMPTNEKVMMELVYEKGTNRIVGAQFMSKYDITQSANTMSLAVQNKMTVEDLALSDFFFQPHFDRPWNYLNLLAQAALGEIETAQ
SMILES,"NADH formation at 340 nm, lysate supernatant [1]","NADH consumption, lysate supernatant (EhNOX (NADH oxidase))"
C[C@@H](O)[C@H](N)C(=O)O [L-threonine],The enzyme activity of EcTDH was determined using L-threonine as the substrate,–
NC(=O)C1=CN([C@@H]2O[C@H](COP(=O)(O)OP(=O)(O)OC[C@H]3O[C@@H](n4cnc5c(N)ncnc54)[C@H](O)[C@@H]3O)[C@@H](O)[C@H]2O)C=CC1 [NADH],–,The enzyme activity of EhNOX was determined using NADH as substrate
